Tests used:
[1] = FIG. 31B
Source text: Table printed on a drawing sheet, FIG. 31B
The patent's description of the figure: FIGS. 31A and 31B show enzymatic stability of branched 3WJs modular RNA motifs. FIG. 31A. Serum degradation curve. FIG. 31B. Half life of 3WJs in 50% serum.
FIGS. 29A to 31B show design (FIGS. 29A and 29B), thermal stability (qPCR & TGGE, FIGS. 30A to 30C), and enzymatic stability (serum stability assay, FIGS. 31A and 31B) of branched 3WJs with different core and helix.

[2] = Apparent hydrodynamic diameter by DLS (Zetasizer nano-ZS); type: physicochemical; conditions: 25° C.
Source text: The data was obtained from three independent measurements.

[3] = tested on: KB cells; test: FITC Annexin V / PI apoptosis assay (FACS); type: cell-based, Human; conditions: 1 μM, 48 hr treatment
Description: FITC Annexin V Apoptosis Detection Kit (BD Pharmingen) and Caspase-3 Assay Kit (BD Pharmingen) were used as previously reported to study cell apoptosis induced by pRNA-3WJ-PTX micelle treatment. For FITC Annexin V staining assay, KB cells were seeded in 12-well plates overnight. […] The controls include Paclitaxel, pRNA-3WJ micelles, and pRNA-3WJ. According to manufacturer instructions, 48 hr after incubation with the RNA micelles, KB cells were trypsinized to single cell suspension. After two PBS washes, the cells were resuspended in 100 μL 1× Annexin V-FITC binding buffer. Then 5 μL AnnexinV-FITC and 5 μL propidium iodide (PI) were added into each sample and incubated at room temperature for 25 min. The samples were finally added to a flow tube which contained 200 μL 1× binding buffer for FACS analysis within 1 hr.

Row | Substance | t1/2 [1] | average hydrodynamic diameter [2] | cells undergoing apoptosis [3]
1 | Phi29-Mod: 3WJ modular RNA motif, SEQ ID NOs:19-21 (chain 1 AUUCGCUGUGUGGUAGUG; chain 2 CACUACCACUUUGUCCUACG; chain 3 CGUAGGACCAGCGAAU; further chemistry not given here) | 24 h | – | –
2 | pRNA-3WJ: phi29 pRNA three-way junction scaffold of a3WJ, b3WJ, c3WJ (SEQ ID NO:16-18), without lipophilic and therapeutic modules (chain 1 UUGCCAUGUGUAUGUGGG; chain 2 CCCACAUACUUUGUUGAUCC; chain 3 GGAUCAAUCAUGGCAA; 2'-fluoro at CU, RNA at AG, backbone not given here) | – | 7.466±1.215 nm | 3.7%

Source: patent US11976092B2, “RNA nanostructures, methods of making, and uses thereof” (Ohio State Innovation Foundation, priority 2018, dated 2024)
